The structures appear in SMILES notation. Like-named read-outs stand apart in the source and are kept apart here.

As a reminder, the AUC(0-inf) is total exposure, with the tail of the curve extrapolated. A higher AUC(0-inf) goes with high exposure. Broadly, the half-life is the time needed for the level to fall by half in the phase considered. As a reminder, the clearance is a measure of how efficiently the substance is removed, as volume per time. One may read the Cmax as the highest concentration seen after dosing. In general, Tmax refers to the time from dosing to the highest level. As usually defined, the bioavailability is dose-corrected exposure relative to a reference, in per cent.

The target of one data set is TRKA (Homo sapiens (Human), UniProt P04629). Put plainly: Mobility shift assay, TRKA kinase. It counts as biochemical. Conditions: ATP 47.8 μM. An excerpt: The operation is described as follows:
Conversion %_Sample: conversion rate of sample;

The test system of another data set is Ba/F3 ETV6-NTRK2-G639R. The data set can be described thus: Cell proliferation inhibition (CellTiter-Glo), Ba/F3 ETV6-NTRK2-G639R. It counts as cell-based. To be noted: Mus musculus, BaF3, 72 h, 72 hrs, read-out: IC50 proliferation Ba/F3 ETV6-NTRK2-G639R. As for the experimental part: 4. Inhibitory Effect of Compounds on the Proliferation of TRK Fusion and Mutant Stable Cell Lines (IC50)
Six cell lines including Ba/F3 LMNA-NTRK1-WT, Ba/F3 LMNA-NTRK1-G595R, Ba/F3 ETV6-NTRK2-WT, Ba/F3 ETV6-NTRK2-G639R, Ba/F3 ETV6-NTRK2-G639R and Ba/F3 ETV6-NTRK3-G623R were used in this experiment. For the six cell lines, the maximum test concentration of the compound was 1 μM, 1 μM, 10 μM, […], 1 μM and 10 μM, were 3.16-fold gradient diluted to obtain 9 samples.
The operation is described briefly as follows:
The cells in logarithmic growth phase were harvested to ensure that the cell viability was above 90%. 3000 cell/well were seeded in 96-well plate (Corning, Cat #3603). The cells were incubated overnight with 5% CO2, 95% humidity at 37° C. Then each well containing the cells of the 96-well plate was added the compound solutions, 3 wells for each compound solution, and continued to incubate for another 72 hrs. Then CellTiter-Glo® kit (Promega, Cat #G7572) was used to do the detection. First, the CTG reagent was melted and the cell plate was balanced to room temperature. The same volume of CTG solution was added into each well and vibrated on the shaker for 5 minutes to lyse the cells. The cell plate was kept at room temperature for 20 minutes to stabilize the luminescent signal. The luminescent value was collected by SpectraMax microplate detector (MD, 2104-0010A). […] Cell survival rate (%)=(1umdrug−1ummedium)/(1umcell−lummedium)×100%

For a further data set, the system named is Ba/F3 ETV6-NTRK3-WT. The data set can be described thus: Cell proliferation inhibition (CellTiter-Glo), Ba/F3 ETV6-NTRK3-WT. The format is cell-based. To be noted: Mus musculus, BaF3, 72 h, 72 hrs, read-out: IC50 proliferation Ba/F3 ETV6-NTRK3-WT.
Data set [1] has as its system H1975 (L858R and T790M double mutation) cells. The data set can be described thus: Analysis of synergistic effect with EGFR inhibitor (Chou-Talalay), H1975 proliferation. The format is cell-based. To be noted: combination with AZD9291, H1975 cells, 72 hr, Chou-Talalay index method. As for the experimental part: 5. Analysis of Synergistic Effect
H1975 (L858R and T790M double mutation) cells were cultured in RPMI-1640 medium containing 10% FBS and 1% P/S ([…]). In the testing of the compounds, H1975 cells were seeded in 96-well plate (Corning, Cat #3917) at 3000 cell/well and the compounds were added at 195 μL solution/well. The initial test concentration of the compound was 10 μM, 3-fold gradient diluted to obtain 11 samples. 4 μL of each sample was added to 96 μL RPMI-1640 medium to dilute the 25× Compound. 5 μL was added to 195 μL cell medium (the final concentration of DMSO is 0.1%, v/v). After 72 hr incubation, 35 μL of CellTiter-Blue® (Promega, Cat #G8082) was added to the cells. The fluorescence signal was measured with FlexStation 3 (Molecular Devices) according to the instructions, and the IC50 value of the compound on cell proliferation inhibition was calculated by Graphpad Grism 5.0 software. The Chou-Talalay index method was used to analyze the effect of the combination. 0.9≤Combination Index (CI)≤1.1 means additive effect, 0.8≤CI<0.9 means low synergistic effect, 0.6≤CI<0.8 means medium synergistic effect, 0.4≤CI<0.6 means high synergistic effect, 0.2≤CI<0.4 means strong synergistic effect.

The nature of data set [2]: Pharmacokinetic analysis in rats. The format is in vivo, Male SD rats. Conditions: rat. As for the experimental part:
6. Pharmacokinetic Analysis
Male SD rats were grouped, each group having 3 rats. […] Animals were fasted overnight from 10 hours before administration to 4 hours after administration. Blood samples were collected at 0.25, 0.5, 1, 2, 4, 8 and 24 hours after administration in the oral group and at 0.083, 0.25, 0.5, 1, 2, 4, 8 and 24 hours after injection in the intravenous group. After isoflurane anesthesia, 0.3 ml whole blood collected through the fundus vein plexus was put into the heparin anticoagulant tube. The sample was centrifuged at 4° C. at 4000 rpm for 5 min. The plasma was transferred into the centrifuge tube and stored at −80° C. until analysis. The extract from the plasma extracted by protein precipitation was analyzed by LC/MS/MS.

Another data set has as its target TRKB (Homo sapiens (Human), UniProt Q16620). The data set can be described thus: Mobility shift assay, TRKB kinase. Conditions: read-out: TRKB IC50, ATP 71.2 μM.

Sequence of TRKB (Q16620 32-822): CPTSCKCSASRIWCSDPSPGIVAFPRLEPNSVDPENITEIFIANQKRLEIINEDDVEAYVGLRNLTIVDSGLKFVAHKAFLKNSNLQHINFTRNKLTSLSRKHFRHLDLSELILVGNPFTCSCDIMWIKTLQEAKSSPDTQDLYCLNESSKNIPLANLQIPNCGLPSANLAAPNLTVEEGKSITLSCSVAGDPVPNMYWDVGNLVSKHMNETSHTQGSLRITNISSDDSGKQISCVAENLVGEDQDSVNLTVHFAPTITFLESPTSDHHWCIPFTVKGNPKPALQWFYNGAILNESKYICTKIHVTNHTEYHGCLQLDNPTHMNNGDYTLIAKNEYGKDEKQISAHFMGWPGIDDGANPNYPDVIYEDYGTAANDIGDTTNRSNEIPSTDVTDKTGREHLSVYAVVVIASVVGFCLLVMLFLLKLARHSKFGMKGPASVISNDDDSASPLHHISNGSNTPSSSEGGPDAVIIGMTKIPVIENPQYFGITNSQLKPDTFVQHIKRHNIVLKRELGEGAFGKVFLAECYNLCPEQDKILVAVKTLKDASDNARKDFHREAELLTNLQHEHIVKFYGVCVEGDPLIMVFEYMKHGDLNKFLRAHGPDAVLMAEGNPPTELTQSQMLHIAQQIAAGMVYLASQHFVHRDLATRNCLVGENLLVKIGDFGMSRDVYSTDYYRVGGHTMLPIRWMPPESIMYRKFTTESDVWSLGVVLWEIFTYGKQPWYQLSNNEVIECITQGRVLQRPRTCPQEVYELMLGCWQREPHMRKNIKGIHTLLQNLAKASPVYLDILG
Sequence of TRKA (P04629 33-796): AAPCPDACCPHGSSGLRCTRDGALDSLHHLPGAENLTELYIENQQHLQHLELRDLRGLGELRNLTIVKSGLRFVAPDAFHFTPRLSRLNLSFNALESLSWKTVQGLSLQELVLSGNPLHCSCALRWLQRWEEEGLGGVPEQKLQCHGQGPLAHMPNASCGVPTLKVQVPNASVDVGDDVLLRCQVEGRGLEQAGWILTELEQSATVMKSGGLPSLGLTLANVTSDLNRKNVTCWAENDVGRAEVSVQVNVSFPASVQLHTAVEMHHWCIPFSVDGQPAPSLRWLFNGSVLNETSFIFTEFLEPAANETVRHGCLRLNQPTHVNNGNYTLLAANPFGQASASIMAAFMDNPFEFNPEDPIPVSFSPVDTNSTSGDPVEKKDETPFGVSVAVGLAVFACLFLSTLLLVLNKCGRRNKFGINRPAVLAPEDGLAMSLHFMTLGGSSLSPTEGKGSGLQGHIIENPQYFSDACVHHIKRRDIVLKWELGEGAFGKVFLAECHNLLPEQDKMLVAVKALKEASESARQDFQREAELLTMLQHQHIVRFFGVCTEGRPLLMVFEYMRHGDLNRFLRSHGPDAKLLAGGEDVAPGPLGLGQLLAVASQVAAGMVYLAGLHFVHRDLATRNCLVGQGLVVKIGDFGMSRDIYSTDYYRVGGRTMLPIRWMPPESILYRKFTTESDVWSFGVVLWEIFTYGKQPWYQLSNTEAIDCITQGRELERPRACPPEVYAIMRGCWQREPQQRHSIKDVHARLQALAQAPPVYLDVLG
Method for TRKB: The inhibitory activity of compounds on TRKA, TRKB, TRKC and ROS1 kinase was analyzed with Mobility shift assay. The screening platform is MSA based microfluidic chip technology, which applies the basic concept of capillary electrophoresis to microfluidic environment. The substrate used in the experiment is a poly-peptide labeled with fluorescent. Under the catalysis of enzyme in the reaction system, the substrate is transformed into a product, with the charge changed accordingly. MSA technology could detect the substrate and the product with different charge separately.
The compound powder was dissolved in 100% DMSO (Sigma, Cat. D8418-1l) to prepare a 10 mM storage solution. […] The reaction was carried out at room temperature for 30 min/40 min/20 min/20 min respectively. After the reaction was terminated, the conversion rate was read by Caliper EZ Reader II.
Conversion %_Min: mean value of negative control, representing the conversion rate without enzyme activity;
Conversion %_Max: mean value of positive control, which represents the conversion rate reading without compound inhibition.
Taking the log value of concentration as X axis and the percentage inhibition rate as Y axis, the dose response curve was fitted by the analysis software GraphPad Prism 5, thus the IC50 value of each compound on enzyme activity inhibition was obtained.

On to `C[C@H]1COC(=O)c2cnn3ccc(nc23)N[C@H](C)c2cc(F)ccc2O1` [Example 1, (1^3E,1^4E,3R,6S)-4^5-fluoro-3,6-dimethyl-5,8-dioxa-2-aza-1(5,3)-pyrazolo[1,5-a]pyrimidina-4(1,2)-benzenacyclononaphan-9-one], for which the IC50 at TRKA was 0.42 nM; with Ba/F3 ETV6-NTRK2-G639R (test batch marked #) it was 64.6 nM; in the data set on Ba/F3 ETV6-NTRK2-G639R (test batch marked *) it was 100 nM; with Ba/F3 ETV6-NTRK3-WT (test batch marked #), 1.04 nM; in the data set on Ba/F3 ETV6-NTRK3-WT (test batch marked *) it was 0.2 nM; at TRKB, 0.5 nM. In addition, the “Combination Index (CI)” value in data set [1] is recorded as 0.53-0.67. Also, the AUC(0-inf) stood at 621 ng·h/mL in data set [2] (male, SD, plasma, IV, 1 mg/kg) and 3550 ng·h/mL in data set [2] (male, SD, plasma, PO, 5 mg/kg). For the same compound, in data set [2] (male, SD, plasma, IV, 1 mg/kg), the C0 was 217 ng/mL. Moreover, the half-life in data set [2] (male, SD, plasma, IV, 1 mg/kg) is 1.7 h; in data set [2] (male, SD, plasma, PO, 5 mg/kg), 1.84 h. Besides, the clearance in data set [2] (male, SD, plasma, IV, 1 mg/kg, read-out: C1 (clearance)) was 27.2 mL/min/kg. For the same compound, the Vd in data set [2] (male, SD, plasma, IV, 1 mg/kg, read-out: Vdss) amounted to 4.26 L/kg. The compound also came in with a Cmax in data set [2] (male, SD, plasma, PO, 5 mg/kg) of 952 ng/mL. Besides, the Tmax in data set [2] (male, SD, plasma, PO, 5 mg/kg) came out at 0.667 h. Further, in data set [2] (male, SD, plasma, po, 5 mg/kg, PO, 5 mg/kg, read-out: F (oral bioavailability)), the bioavailability was found to be 100%. Besides, the “F (oral bioavailability)” value in data set [2] (PO, 5 mg/kg) is 114%. Further, in data set [2] (oral), the “PK performance compared with TPX-0005” value is recorded as “better oral pharmacokinetic performance than that of TPX-0005”.

The values are drawn from US12129258B2, “Diaryl macrocyclic compound and pharmaceutical composition, and use thereof” (PrimeGene (Beijing) Co., Ltd., priority 2018, dated 2024).
